Data published in US8192962B2, “Processes for detecting toxic substances” (Daikin Industries, Ltd., priority 2001, dated 2012).

Tested on: Genes belonging to other category
Experiment: DNA chip mRNA expression in yeast, genes belonging to other category (Table 9)
Format: cell-based, Saccharomyces cerevisiae S288C
In short: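 Values are treated/untreated fluorescence ratios from a whole-genome yeast DNA chip hybridized over 12 hours at 65° C with Cy3- or Cy5-labelled cDNA from poly(A) mRNA. Log-phase S288C yeast in YPD at 25° C had received a single toxic chemical for two hours, dosed to slow growth without killing.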

## S=C([S-])NCCNC(=S)[S-].[Zn+2] [(11), zinc N,N′-ethylenebis(dithiocarbamate)]
Yeast gene YJL141C
  The level of expressed mRNA in the presence of chemical substance/The level of expressed mRNA in the absence of chemical substance: 1.2
Yeast gene YJR004C
  The level of expressed mRNA in the presence of chemical substance/The level of expressed mRNA in the absence of chemical substance: 0.7
Yeast gene YJR058C
  The level of expressed mRNA in the presence of chemical substance/The level of expressed mRNA in the absence of chemical substance: 1.2
Yeast gene YJR069C
  The level of expressed mRNA in the presence of chemical substance/The level of expressed mRNA in the absence of chemical substance: 0.9
Yeast gene YJR086W
  The level of expressed mRNA in the presence of chemical substance/The level of expressed mRNA in the absence of chemical substance: 1.0
Yeast gene YKL008C
  The level of expressed mRNA in the presence of chemical substance/The level of expressed mRNA in the absence of chemical substance: 1.5
Yeast gene YKL013C
  The level of expressed mRNA in the presence of chemical substance/The level of expressed mRNA in the absence of chemical substance: 1.1
Yeast gene YKL039W
  The level of expressed mRNA in the presence of chemical substance/The level of expressed mRNA in the absence of chemical substance: 1.0
Yeast gene YKL041W
  The level of expressed mRNA in the presence of chemical substance/The level of expressed mRNA in the absence of chemical substance: 1.2
Yeast gene YKL079W
  The level of expressed mRNA in the presence of chemical substance/The level of expressed mRNA in the absence of chemical substance: 1.3
Yeast gene YKL096W
  The level of expressed mRNA in the presence of chemical substance/The level of expressed mRNA in the absence of chemical substance: 3.5
Yeast gene YKL097W-A
  The level of expressed mRNA in the presence of chemical substance/The level of expressed mRNA in the absence of chemical substance: 1.6
Yeast gene YKL139W
  The level of expressed mRNA in the presence of chemical substance/The level of expressed mRNA in the absence of chemical substance: 1.4
Yeast gene YKL165C
  The level of expressed mRNA in the presence of chemical substance/The level of expressed mRNA in the absence of chemical substance: 0.3
Yeast gene YKL193C
  The level of expressed mRNA in the presence of chemical substance/The level of expressed mRNA in the absence of chemical substance: 1.7
Yeast gene YKL198C
  The level of expressed mRNA in the presence of chemical substance/The level of expressed mRNA in the absence of chemical substance: 1.4
Yeast gene YKR014C
  The level of expressed mRNA in the presence of chemical substance/The level of expressed mRNA in the absence of chemical substance: 1.1
Yeast gene YLR093C
  The level of expressed mRNA in the presence of chemical substance/The level of expressed mRNA in the absence of chemical substance: 1.0
Yeast gene YLR110C
  The level of expressed mRNA in the presence of chemical substance/The level of expressed mRNA in the absence of chemical substance: 3.2
Yeast gene YLR118C
  The level of expressed mRNA in the presence of chemical substance/The level of expressed mRNA in the absence of chemical substance: 1.2
Yeast gene YLR120C
  The level of expressed mRNA in the presence of chemical substance/The level of expressed mRNA in the absence of chemical substance: 1.2
Yeast gene YLR136C
  The level of expressed mRNA in the presence of chemical substance/The level of expressed mRNA in the absence of chemical substance: 1.2
Yeast gene YLR178C
  The level of expressed mRNA in the presence of chemical substance/The level of expressed mRNA in the absence of chemical substance: 3.7
Yeast gene YLR250W
  The level of expressed mRNA in the presence of chemical substance/The level of expressed mRNA in the absence of chemical substance: 1.4
Yeast gene YLR251W
  The level of expressed mRNA in the presence of chemical substance/The level of expressed mRNA in the absence of chemical substance: 4.1
Yeast gene YLR327C
  The level of expressed mRNA in the presence of chemical substance/The level of expressed mRNA in the absence of chemical substance: 5.0
Yeast gene YLR340W
  The level of expressed mRNA in the presence of chemical substance/The level of expressed mRNA in the absence of chemical substance: 1.4
Yeast gene YLR356W
  The level of expressed mRNA in the presence of chemical substance/The level of expressed mRNA in the absence of chemical substance: 3.1
Yeast gene YLR360W
  The level of expressed mRNA in the presence of chemical substance/The level of expressed mRNA in the absence of chemical substance: 0.9
Yeast gene YLR362W
  The level of expressed mRNA in the presence of chemical substance/The level of expressed mRNA in the absence of chemical substance: 1.5
Yeast gene YLR391W
  The level of expressed mRNA in the presence of chemical substance/The level of expressed mRNA in the absence of chemical substance: 1.4
Yeast gene YLR429W
  The level of expressed mRNA in the presence of chemical substance/The level of expressed mRNA in the absence of chemical substance: 0.9
Yeast gene YML055W
  The level of expressed mRNA in the presence of chemical substance/The level of expressed mRNA in the absence of chemical substance: 1.4
Yeast gene YMR004W
  The level of expressed mRNA in the presence of chemical substance/The level of expressed mRNA in the absence of chemical substance: 2.5
Yeast gene YMR091C
  The level of expressed mRNA in the presence of chemical substance/The level of expressed mRNA in the absence of chemical substance: 0.9
Yeast gene YMR092C
  The level of expressed mRNA in the presence of chemical substance/The level of expressed mRNA in the absence of chemical substance: 1.2
Yeast gene YMR094W
  The level of expressed mRNA in the presence of chemical substance/The level of expressed mRNA in the absence of chemical substance: 1.0
Yeast gene YMR104C
  The level of expressed mRNA in the presence of chemical substance/The level of expressed mRNA in the absence of chemical substance: 1.1
Yeast gene YMR112C
  The level of expressed mRNA in the presence of chemical substance/The level of expressed mRNA in the absence of chemical substance: 0.9
Yeast gene YMR214W
  The level of expressed mRNA in the presence of chemical substance/The level of expressed mRNA in the absence of chemical substance: 0.7
Yeast gene YMR219W
  The level of expressed mRNA in the presence of chemical substance/The level of expressed mRNA in the absence of chemical substance: 1.5
Yeast gene YMR226C
  The level of expressed mRNA in the presence of chemical substance/The level of expressed mRNA in the absence of chemical substance: 1.4
Yeast gene YMR238W
  The level of expressed mRNA in the presence of chemical substance/The level of expressed mRNA in the absence of chemical substance: 1.2
Yeast gene YMR255W
  The level of expressed mRNA in the presence of chemical substance/The level of expressed mRNA in the absence of chemical substance: 1.2
Yeast gene YMR275C
  The level of expressed mRNA in the presence of chemical substance/The level of expressed mRNA in the absence of chemical substance: 1.1
Yeast gene YMR276W
  The level of expressed mRNA in the presence of chemical substance/The level of expressed mRNA in the absence of chemical substance: 1.9
Yeast gene YMR314W
  The level of expressed mRNA in the presence of chemical substance/The level of expressed mRNA in the absence of chemical substance: 1.8
Yeast gene YNL006W
  The level of expressed mRNA in the presence of chemical substance/The level of expressed mRNA in the absence of chemical substance: 1.1
Yeast gene YNL007C
  The level of expressed mRNA in the presence of chemical substance/The level of expressed mRNA in the absence of chemical substance: 1.3
Yeast gene YNL039W
  The level of expressed mRNA in the presence of chemical substance/The level of expressed mRNA in the absence of chemical substance: 0.4
